Test results published in patent US12325701B2, “YKL-40 inhibitors and their therapeutic” (Molecure S.A., priority 2022, dated 2025).
Structures can show the parent of a compound that is named as a salt.

How the values were obtained:
[1] = target: YKL-40 (YKL-40: heparan sulfate interaction) (Homo sapiens (Human), UniProt P36222); experiment: YKL-40:HS assay, heparan sulfate interference AlphaScreen; conditions: read-out: YKL-40:HS, IC50/max % inh (max % inh)
human YKL-40 = human YKL-40 (Homo sapiens (Human), UniProt P36222); experiment: Human YKL-40 direct binding assay based on MicroScale Thermophoresis (MST); conditions: by MST and competitive AlphaScreen for chitin binding site; depends on ligand length, sulphation, Mg2+
human YKL-40, sequence (P36222 22-383): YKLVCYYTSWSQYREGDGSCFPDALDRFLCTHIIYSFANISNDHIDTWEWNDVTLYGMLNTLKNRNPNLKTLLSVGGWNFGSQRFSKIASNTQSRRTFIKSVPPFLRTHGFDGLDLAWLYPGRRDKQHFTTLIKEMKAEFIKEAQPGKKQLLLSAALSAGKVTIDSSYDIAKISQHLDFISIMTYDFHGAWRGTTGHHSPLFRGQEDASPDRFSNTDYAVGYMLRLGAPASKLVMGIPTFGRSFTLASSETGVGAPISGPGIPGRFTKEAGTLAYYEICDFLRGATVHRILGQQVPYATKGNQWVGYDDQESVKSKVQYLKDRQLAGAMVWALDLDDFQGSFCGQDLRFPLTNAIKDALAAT

[2] = target: YKL-40 (YKL-40-histag, chitin binding site) (Homo sapiens (Human), UniProt P36222); experiment: YKL-40:4 assay, competitive chitin binding site AlphaScreen
YKL-40 (YKL-40-histag, chitin binding site), sequence (P36222 22-383): as above

YKL-40 (YKL-40: heparan sulfate interaction), sequence (P36222 22-383): as above

Row | inhibition [1] | IC50 [2] | Compound | also measured
1 | 85% |  | CNC(=O)CN1C[C@H](Cc2ccc(Cl)cc2)N(C2CCN(c3ccccn3)CC2)C[C@@H]1CC(C)C [Compound 95, 2-((2S,5S)-5-(4-chlorobenzyl)-2-isobutyl-4-(1-(pyridin-2-yl)piperidin-4-yl)piperazin-1-yl)-N-methylacetamide 2,2,2-trifluoroacetate] | 
2 | 36% |  | Cc1cnc(N2CCC(N3C[C@H](C)OC[C@@H]3Cc3ccc(Cl)cc3)CC2)s1 [Compound 185, (2S,5S)-5-(4-chlorobenzyl)-2-methyl-4-(1-(5-methylthiazol-2-yl)piperidin-4-yl)morpholine 2,2,2-trifluoroacetate] | 
3 | 53% |  | Cc1nc(N2CCC(N3C[C@H](C)OC[C@@H]3Cc3ccc(Cl)cc3)CC2)sc1C [Compound 183, (2S,5S)-5-(4-chlorobenzyl)-4-(1-(4,5-dimethylthiazol-2-yl)piperidin-4-yl)-2-methylmorpholine 2,2,2-trifluoroacetate] | 
4 | 30% |  | Cc1ccnc(N2CCC(N3C[C@H](C)OC[C@@H]3Cc3ccc(Cl)cc3)CC2)c1F [Compound 112, (2S,5S)-5-(4-chlorobenzyl)-4-(1-(3-fluoro-4-methylpyridin-2-yl)piperidin-4-yl)-2-methylmorpholine 2,2,2-trifluoroacetate] | 
5 | 27% |  | CNC(=O)CN1C[C@H](Cc2ccc(Cl)cc2)N(C2CCN(c3ccccn3)CC2)C[C@@H]1C(C)C [Compound 106, 2-((2S,5S)-5-(4-chlorobenzyl)-2-isopropyl-4-(1-(pyridin-2-yl)piperidin-4-yl)piperazin-1-yl)-N-methylacetamide 2,2,2-trifluoroacetate] | 
6 | 52% |  | CN1C[C@H](Cc2ccc(Cl)cc2)N(C2CCN(c3cc(Cl)ccn3)CC2)C[C@@H]1CN1CCOCC1 [Compound 51, 4-(((2S,5S)-5-(4-chlorobenzyl)-4-(1-(4-chloropyridin-2-yl)piperidin-4-yl)-1-methyl-piperazin-2-yl)methyl)morpholine hydrochloride] | 
7 |  |  | heparin sodium salt | binding affinity to YKL-40 (in words) (human YKL-40): high nM affinity
8 | 75% |  | CN1C[C@H](Cc2ccc(Cl)cc2)N(C2CCN(c3cc(Cl)ccn3)CC2)C[C@@H]1Cn1ccnc1 [Compound 82, (2R,5S)-2-((1H-imidazol-1-yl)methyl)-5-(4-chlorobenzyl)-4-(1-(4-chloropyridin-2-yl)piperidin-4-yl)-1-methylpiperazine hydrochloride] | 
9 |  | > 10 µM | COc1ncnc(N2CCC(N3C[C@H](C)OC[C@@H]3Cc3ccc(Cl)cc3)CC2)n1 [Compound 171, (2S,5S)-5-(4-chlorobenzyl)-4-(1-(4-methoxy-1,3,5-triazin-2-yl)piperidin-4-yl)-2-methylmorpholine 2,2,2-trifluoroacetate] | 
10 |  | > 10 µM | C[C@H]1CN(C2CCN(c3ccncn3)CC2)[C@@H](Cc2ccc(Cl)cc2)CO1 [Example 26, (2S,5S)-5-(4-chlorobenzyl)-2-methyl-4-(1-(pyrimidin-4-yl)piperidin-4-yl)morpholi-ne 2,2,2-trifluoroacetate] | 
11 |  | > 10 µM | C[C@H]1CN(C2CCN(c3cccnc3)CC2)[C@@H](Cc2ccc(Cl)cc2)CO1 [Example 27, (2S,5S)-5-(4-chlorobenzyl)-2-methyl-4-(1-(pyridin-3-yl)piperidin-4-yl)morpholine 2,2,2-trifluoroacetate] | 
12 |  | > 10 µM | C[C@H]1CN(C2CCN(c3noc(=O)[nH]3)CC2)[C@@H](Cc2ccc(Cl)cc2)CO1 [Compound 165, 3-(4-((2S,5S)-5-(4-chlorobenzyl)-2-methylmorpholino)piperidin-1-yl)-1,2,4-oxadiazol-5(4H)-one 2,2,2-trifluoroacetate] | 

Row | Compound | inhibition [1] | IC50 [2] | also measured
13 | CN1C[C@H](Cc2ccc(Cl)cc2)N(C2CCN(c3ccccn3)CC2)C[C@@H]1Cc1ccc(Cl)cc1 [Compound 63, (2S,5S)-2,5-bis(4-chlorobenzyl)-1-methyl-4-(1-(pyridin-2-yl)piperidin-4-yl)piperazine 2,2,2-trifluoroacetate] | 85% |  | 
